Results taken from US9573978B2, “Cyclosporin derivatives for the treatment and prevention of a viral infection” (priority 2010, dated 2017).
Starred links: 1 amine or outer side, 2 acyl side, 3 side chain; linkers in the order of their positions; H or OH if unused. Non-standard residues stand in square brackets, D forms with d. Residues, ends and D or L forms follow the SMILES beside them. ξ: configuration not given here. NMe(dihydroBmt) = CCCC[C@@H](C)[C@@H](O)[C@H](NC)C(=O)O; MeBmt = C/C=C/C[C@@H](C)[C@@H](O)[C@H](NC)C(=O)O; X2 = CN([C@H](SCCCN1CCOCC1)C(=O)[*:2])[*:1]; NMeLeu(4-OMe) = CN[C@@H](CC(C)(C)OC)C(=O)O; X4 = CCN(CC)CCS[C@@H](C(=O)[*:2])N(C)[*:1]; X1 = CCN(CC)CCS[C@H](C(=O)[*:2])N(C)[*:1]; X5 = CC=CCC(C)C(O)C(C(=O)[*:2])N(C)[*:1]; X7 = C=CCOC(C)(C)CC(C(=O)[*:2])N(C)[*:1]; X6 = CN(C(SCCCN1CCOCC1)C(=O)[*:2])[*:1]; NMeIle(3ξ) = CCC(C)[C@H](NC)C(=O)O; NMeL = CN[CH](CC(C)C)C(=O)O; NMeV = CN[CH](C(=O)O)C(C)C; Abu = CC[CH](N)C(=O)O

Each molecule was assayed on HCV replicon in Huh7 human hepatoma cell line ET (luc-ubi-neo/ET) (assay: HCV subgenomic replicon assay, luciferase end point, cell line ET (luc-ubi-neo/ET)). Conditions: HCV replicon-derived luciferase activity; read-out: Antiviral activity IC50.
Assay type: cell-based, Hepatitis C virus
Method: The anti-HCV activity of cyclosporine derivatives were evaluated in the HCV subgenomic replicon assay. The assay use the cell line ET (luc-ubi-neo/ET), which is a Huh7 human hepatoma cell line harboring an HCV replicon with a stable luciferase (Luc) reporter. HCV RNA replication was assessed by quantifying HCV replicon-derived luciferase activity. The antiviral activity of cyclosporine analogs were evaluated after drug treatment, the EC 50 and EC 90 were determined in subsequent assessments by using the luciferase end point (Krieger, N., et al., 2001, J. Virol. 75, 4614-4624; Pietschmann, T., et al., 2002, J. Virol. 76, 4008-4021; each of which is incorporated herein by reference).

In order of rising IC50:
1. C/C=C/C[C@@H](C)[C@@H](O)[C@H]1C(=O)N[C@@H](CC)C(=O)N(C)[C@H](SCCN(CC)CC)C(=O)N(C)[C@@H](C(C)C)C(=O)N[C@@H](C(C)C)C(=O)N(C)[C@@H](CC(C)C)C(=O)N[C@@H](C)C(=O)N[C@H](C)C(=O)N(C)[C@@H](CC(C)C)C(=O)N(C)[C@@H](CC(C)C)C(=O)N(C)[C@@H](C(C)C)C(=O)N1C [[(R)-2-(N,N-Diethylamino)ethylthio-Sar]-3-[NMeVal]-4-cyclosporin] (cyclo(A[dA][NMeL][NMeL][NMeV][MeBmt][Abu][X1][NMeV]V[NMeL]))  40 nM
2. C=CCOC(C)(C)CC1C(=O)NC(C(C)C)C(=O)N(C)C(CC(C)C)C(=O)NC(C)C(=O)NC(C)C(=O)N(C)C(CC(C)C)C(=O)N(C)C(CC(C)C)C(=O)N(C)C(C(C)C)C(=O)N(C)C(C(O)C(C)CC=CC)C(=O)NC(CC)C(=O)N(C)C(SCCCN2CCOCC2)C(=O)N1C [Example 26, [(R)-3-(N-Morphlino)propylthio-Sar]-3-[(γ-Allyloxy)-NMeLeu]-4-cyclosporin] (cyclo([X5][Abu][X6][X7]V[NMeL]AA[NMeL][NMeL][NMeV]); configuration not given here)  80 nM
3. C/C=C/C[C@@H](C)[C@@H](O)[C@H]1C(=O)N[C@@H](CC)C(=O)N(C)CC(=O)N(C)[C@@H](C(C)C)C(=O)N[C@@H](C(C)C)C(=O)N(C)[C@@H](CC(C)C)C(=O)N[C@@H](C)C(=O)N[C@H](C)C(=O)N(C)[C@@H](CC(C)C)C(=O)N(C)[C@@H](CC(C)C)C(=O)N(C)[C@@H](C(C)C)C(=O)N1C [SDZ-220-384, N-MeVal-4-Cyclosporin]  170 nM
4. [(S)-2-(N,N-Diethylamino)ethylthio-Sar]-3-[NMeIle]-4-cyclosporin  1870 nM
5. C/C=C/C[C@@H](C)[C@@H](O)[C@H]1C(=O)N[C@@H](CC)C(=O)N(C)[C@@H](SCCN(CC)CC)C(=O)N(C)[C@@H](C(C)C)C(=O)N[C@@H](C(C)C)C(=O)N(C)[C@@H](CC(C)C)C(=O)N[C@@H](C)C(=O)N[C@H](C)C(=O)N(C)[C@@H](CC(C)C)C(=O)N(C)[C@@H](CC(C)C)C(=O)N(C)[C@@H](C(C)C)C(=O)N1C [[(S)-2-(N,N-Diethylamino)ethylthio-Sar]-3-[NMeVal]-4-cyclosporin] (cyclo(A[dA][NMeL][NMeL][NMeV][MeBmt][Abu][X4][NMeV]V[NMeL]))  3660 nM

Same assay, conditions: Hepatitis C virus, Huh-7, read-out: Antiviral activity IC50

In order of rising IC50:
1. C/C=C/C[C@@H](C)[C@@H](O)[C@H]1C(=O)N[C@@H](CC)C(=O)N(C)[C@H](SCCCN2CCOCC2)C(=O)N(C)[C@@H](CC(C)(C)O)C(=O)N[C@@H](C(C)C)C(=O)N(C)[C@@H](CC(C)C)C(=O)N[C@@H](C)C(=O)N[C@H](C)C(=O)N(C)[C@@H](CC(C)C)C(=O)N(C)[C@@H](CC(C)C)C(=O)N(C)[C@@H](C(C)C)C(=O)N1C [Example 1, [(R)-3-(N-Morphlino)propylthio-Sar]-3-[(γ-Hydroxy)-NMeLeu]-4-cyclosporin]  40 nM
2. C/C=C/C[C@@H](C)[C@@H](O)[C@H]1C(=O)N[C@@H](CC)C(=O)N(C)[C@H](SCCN(CC)CC)C(=O)N(C)[C@@H](C(C)CC)C(=O)N[C@@H](C(C)C)C(=O)N(C)[C@@H](CC(C)C)C(=O)N[C@@H](C)C(=O)N[C@H](C)C(=O)N(C)[C@@H](CC(C)C)C(=O)N(C)[C@@H](CC(C)C)C(=O)N(C)[C@@H](C(C)C)C(=O)N1C (stereo partly drawn) [[(R)-2-(N,N-Diethylamino)ethylthio-Sar]-3-[NMeIle]-4-cyclosporin] (cyclo(A[dA][NMeL][NMeL][NMeV][MeBmt][Abu][X1][NMeIle(3ξ)]V[NMeL]))  40 nM
3. C/C=C/C[C@@H](C)[C@@H](O)[C@H]1C(=O)N[C@@H](CC)C(=O)N(C)[C@H](SCCCN2CCOCC2)C(=O)N(C)[C@@H](CC(C)(C)OC)C(=O)N[C@@H](C(C)C)C(=O)N(C)[C@@H](CC(C)C)C(=O)N[C@@H](C)C(=O)N[C@H](C)C(=O)N(C)[C@@H](CC(C)C)C(=O)N(C)[C@@H](CC(C)C)C(=O)N(C)[C@@H](C(C)C)C(=O)N1C [Example 12, [(R)-3-(N-Morphlino)propylthio-Sar]-3-[(γ-Methoxy)-NMeLeu]-4-cyclosporin]  60 nM
4. C/C=C/C[C@@H](C)[C@@H](O)[C@H]1C(=O)N[C@@H](CC)C(=O)N(C)[C@H](SCCCN(CC)CC)C(=O)N(C)[C@@H](CC(C)(C)O)C(=O)N[C@@H](C(C)C)C(=O)N(C)[C@@H](CC(C)C)C(=O)N[C@@H](C)C(=O)N[C@H](C)C(=O)N(C)[C@@H](CC(C)C)C(=O)N(C)[C@@H](CC(C)C)C(=O)N(C)[C@@H](C(C)C)C(=O)N1C [Example 2, [(R)-3-(N,N-Diethylamino)propylthio-Sar]-3-[(γ-Hydroxy)-NMeLeu]-4-cyclosporin]  70 nM
5. CCCC[C@@H](C)[C@@H](O)[C@H]1C(=O)N[C@@H](CC)C(=O)N(C)[C@H](SCCCN2CCOCC2)C(=O)N(C)[C@@H](CC(C)(C)OC)C(=O)N[C@@H](C(C)C)C(=O)N(C)[C@@H](CC(C)C)C(=O)N[C@@H](C)C(=O)N[C@H](C)C(=O)N(C)[C@@H](CC(C)C)C(=O)N(C)[C@@H](CC(C)C)C(=O)N(C)[C@@H](C(C)C)C(=O)N1C [Example 10, [(R)-3-(N-Morphlino)propylthio-Sar]-3-[(γ-Methoxy)-NMeLeu]-4-Dihydrocyclosporin] (cyclo(A[dA][NMeL][NMeL][NMeV][NMe(dihydroBmt)][Abu][X2][NMeLeu(4-OMe)]V[NMeL]))  90 nM
6. C/C=C/C[C@@H](C)[C@@H](O)[C@H]1C(=O)N[C@@H](CC)C(=O)N(C)CC(=O)N(C)[C@@H]([C@@H](C)CC)C(=O)N[C@@H](C(C)C)C(=O)N(C)[C@@H](CC(C)C)C(=O)N[C@@H](C)C(=O)N[C@H](C)C(=O)N(C)[C@@H](CC(C)C)C(=O)N(C)[C@@H](CC(C)C)C(=O)N(C)[C@@H](C(C)C)C(=O)N1C [SDZ-NIM-811, N-MeIle-4-Cyclosporin]  150 nM
